This is an account of results in patent US20210267996A1, “Compounds for inhibition of inflammation” (Children`s Medical Center Corporation, priority 2018, published 2021).

In experiment [1] the test system is THP-1 cells. Nature of the experiment: Canonical inflammasome pyroptosis, LPS-primed THP-1 cells plus nigericin. Conditions: for inhibition of canonical inflammasome pyroptosis: THP-1, nigericin. In kind it is cell-based, human.
Experimental: Cell viability assay. […] Primed THP-1 cells were pretreated with each test compound for 1 hr before addition of 20 μM nigericin or medium as control. The number of surviving cells was determined by CellTiter-Glo assay 1.5 hrs later. The final percent cell viability was calculated using the formula [(luminescencetest compound−luminescencencenegative control)/(luminescencencepositive control−luminescencenegative control)]×100, where wells with only LPS were used as positive controls and wells treated with LPS and nigericin were used as negative controls.
In FIGS. 4, 6, and 8, PMA-differentiated LPS-primed human THP-1 were pre-treated with indicated concentrations of each compound for 1 h before adding nigericin or medium. The number of surviving cells was determined by CellTiter-Glo assay (FIGS. 4 and 6) and IL-1β in culture supernatants was assessed by ELISA (FIG. 8) 2 hrs later. […] In FIGS. 8 and 9, 40 μM concentration of test compounds were added. […] Graphs show the mean±s.d. and data shown are representative of three independent experiments. **P<0.01.
In experiment [2] the test system is mouse iBMDMs. Nature of the experiment: Non-canonical inflammasome pyroptosis, iBMDMs with LPS electroporation. In kind it is cell-based. The procedure:
Cell lines and treatments: THP-1 cells and HEK293T cells (obtained from ATCC) were grown in RPMI with 10% heat-inactivated fetal bovine serum, supplemented with 100 U/ml penicillin G, 100 μg/ml streptomycin sulfate, 6 mM HEPES, 1.6 mM L-glutamine, and 50 μM 2ME. C57BL/6 mouse iBMDM cells were kindly provided by J. Kagan (Boston Children's Hospital) and cultured in DMEM with the same supplements. Cells were verified to be free of mycoplasma contamination. Transient transfection of HEK293T cells was performed using Lipofectamine 2000 (Invitrogen) according to the manufacturer's instructions. iBMDM cells were transfected by nucleofection using the Amaxa Nucleofector kit (VPA-1009). […] To examine IκBα. phosphorylation and degradation as well as IL-1β induction, PMA-differentiated THP-1 cells were stimulated with LPS (1 μg/ml) for 0.5, 1 and 4 hrs, respectively. For noncanoical inflammasome activation, 1 million iBMDM cells were electroporated with 1 μg ultra LPS.
Cytotoxicity and cell viability assays: cell death and cell viability were determined by the lactate dehydrogenase release assay using the CytoTox 96 Non-Radioactive Cytotoxicity Assay kit (Promega) and by measuring ATP levels using the CellTiter-Glo Luminescent Cell Viability Assay (Promega), respectively, according to the manufacturer's instructions. Luminescence and absorbance were measured on a BioTek Synergy 2 plate reader.
In FIGS. 4, 6, and 8, PMA-differentiated LPS-primed human THP-1 were pre-treated with indicated concentrations of each compound for 1 h before adding nigericin or medium. The number of surviving cells was determined by CellTiter-Glo assay (FIGS. 4 and 6) and IL-1β in culture supernatants was assessed by ELISA (FIG. 8) 2 hrs later. In FIGS. 5, 7, and 9, mouse iBMDMs were pre-treated with each test compound for 1 hr before electroporation with PBS or LPS. The number of surviving cells was determined by CellTiter-Glo assay (FIGS. 5 and 7) and IL-1β in culture supernatants was assessed by ELISA (FIG. 9) 2.5 hrs later. In FIGS. 8 and 9, 40 μM concentration of test compounds were added.

Experiment [3] addresses T1, Human GSDMD (Homo sapiens, UniProt P57764).
T1 construct: His6-MBP (N, cleaved yes); made in house; host or cells: E. coli BL21 (DE3) for GSDMD; Sf9 for caspase-11
T1 sequence (P57764 1-484): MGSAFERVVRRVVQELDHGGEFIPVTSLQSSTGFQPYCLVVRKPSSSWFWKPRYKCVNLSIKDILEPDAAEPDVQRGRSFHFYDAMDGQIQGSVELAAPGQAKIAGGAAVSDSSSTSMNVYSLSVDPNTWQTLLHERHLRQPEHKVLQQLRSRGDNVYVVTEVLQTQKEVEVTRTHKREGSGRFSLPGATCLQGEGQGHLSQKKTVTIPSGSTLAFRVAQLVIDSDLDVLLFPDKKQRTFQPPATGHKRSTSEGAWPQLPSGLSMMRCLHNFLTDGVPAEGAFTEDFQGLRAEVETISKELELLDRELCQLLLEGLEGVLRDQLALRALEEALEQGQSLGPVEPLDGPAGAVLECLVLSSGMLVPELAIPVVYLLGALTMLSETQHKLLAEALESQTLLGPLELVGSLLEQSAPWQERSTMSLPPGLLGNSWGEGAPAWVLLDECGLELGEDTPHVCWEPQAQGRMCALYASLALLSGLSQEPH
Nature of the experiment: Liposome leakage assay (Tb3+/DPA), GSDMD plus caspase-11. In kind it is biochemical. The procedure:
The lipid mixture was suspended in 1 mL Buffer A (20 mM HEPES, 150 mM NaCl, 50 mM sodium citrate, and 15 mM TbCl3) for 3 min. The suspension was pushed through 100 nm Whatman® Nuclepore™ Track-Etched Membrane 30 times to obtain homogeneous liposomes. The filtered suspension was purified by size exclusion column (Superose 6, 10/300 GL) in Buffer B (20 mM HEPES, 150 mM NaCl) to remove TbCl3 outside liposomes. […] The liposomes are diluted to 50 μM with Buffer C (20 mM HEPES, 150 mM NaCl and 50 μM DPA) for use in high-throughput screening.

For experiment [4], the system named is HT-29 cells. Nature of the experiment: Necroptosis induced by TNFα, SMAC mimetic and z-VAD-fmk. The format is cell-based. Conditions: SMAC mimetic.
Text: Inhibition was shown by cell survival, assessed by CellTiter-Glo ATP luminescence, and membrane permeabilization, assessed by uptake of the membrane-impermeable dye SYTOX Green.
Experiment [5] relates to mouse iBMDMs. Briefly: Processing of caspase-1, GSDMD and IL-1β in iBMDMs (immunoblot). In kind it is cell-based. The settings on record: 1 hr time point. The procedure: FIG. 97 contains a bar graph showing results of an experiment where LPS-primed THP-1 cells, after medium removal, were incubated with probe FAM-YVAD-FMK in FLICA assay buffer for another 0.5 hr before fluorescence reading. iBMDMs were pretreated with disulfiram, Bay 11-7082, necrosulfonamide (NSA) or z-VAD-fmk for 1 hr before treated or not with Nigericin for 0.5 hr. Whole cell lysates and culture supernatants were immunoblotted with the indicated antibodies.
FIG. 98 contains a bar graph showing results of an experiment where LPS-primed THP-1 cells, after medium removal, were incubated with probe FAM-YVAD-FMK in FLICA assay buffer for another 0.5 hr before fluorescence reading. iBMDMs were pretreated with disulfiram, Bay 11-7082, necrosulfonamide (NSA) or z-VAD-fmk for 1 hr before treated or not with Nigericin for 1 hr. Whole cell lysates and culture supernatants were immunoblotted with the indicated antibodies.
Canonical inflammasome assembly activates caspase-1, which cleaves pro-IL-1β and GSDMD, and the latter is needed to release processed IL-1β and to induce pyroptosis. To assess which steps in NLRP3-mediated inflammation were inhibited post ASC speck formation, LPS-primed THP-1 cells were treated with vehicle, 30 μM z-VAD-fmk or disulfiram 1 hour before adding nigericin, and cleavage and activation of caspase-1, GSDMD, and pro-IL-1β were analysed by immunoblot of whole cell lysates 30 min later and 1 hr later. Secretion of processed IL-1β was also assessed by immunoblot of culture supernatants. […] The 1 hr time point is relevant as the cell death and IL-1β release measurements used cells stimulated with nigericin for 1 and 2 hrs, respectively.

[6] abbreviates: Table 2, leakage assay, read-out: IC50.

Entries after “also recorded” stand apart in the source; their conditions may differ. Structures can show the parent of a compound that is named as a salt. Where two headings read alike, the source gives them in different places.

In the case of `COc1ccc(-c2cc(=S)ss2)cc1` [C-22], the “inhibition of canonical inflammasome pyroptosis” value in experiment [1] is “Only C-23 blocked pyroptosis”. Besides, the “inhibition of non-canonical inflammasome pyroptosis” value in experiment [2] is “Only C-23 blocked pyroptosis”.

`CN(C)C(=S)SSC(=S)N(C)C` [C-23A1, tetramethylthiuram disulfide]: the IC50 (usually the concentration needed to halve the response being measured) in experiment [3] (setting [6]) turned out to be 0.22 ± 0.01 µM.

`CC(C)N(C(=S)SSC(=S)N(C(C)C)C(C)C)C(C)C` [C-23A2, Tetraisopropylthiuram disulfide]: the IC50 in experiment [3] (setting [6]) came to 0.37 ± 0.01 µM.

Consider `CCCCN(CCCC)C(=S)SSC(=S)N(CCCC)CCCC` [C-23A3, tetrabutylthiuram disulfide], for which, in experiment [3] (setting [6]), the IC50 was 0.46 ± 0.08 µM.

Take `CN1CCN(C(=S)SSC(=S)N2CCN(C)CC2)CC1` [C-23A4, 4-Methylpiperazine-1-carbothioic dithioperoxyanhydride]: the IC50 in experiment [3] (setting [6]) amounted to 0.26 ± 0.01 µM.

As for `S=C(SSC(=S)N(c1ccccc1)c1ccccc1)N(c1ccccc1)c1ccccc1` [C-23A5, Tetraphenylthiuram disulfide], the IC50 in experiment [3] (setting [6]) was determined as 3.74 ± 1.06 µM.

On to `Cc1ccc(N(C)C(=S)SSC(=S)N(C)c2ccc(C)cc2)cc1` [C-23A6, N,N′-Dimethyl-N,N′-(4,4′-dimethyldiphenyl)thiuram disulfide], for which, in experiment [3] (setting [6]), the IC50 amounted to 0.35 ± 0.03 µM.

As for `S=C(SSC(=S)N1CCOCC1)N1CCOCC1` [C-23A7, di(4-morpholinyl)dithioperoxyanhydride], the IC50 in experiment [3] (setting [6]) was 0.25 ± 0.01 µM.

As to `CN(C(=S)SSC(=S)N(C)c1ccncc1)c1ccncc1` [C-23A8, N,N′-Dimethyl-N,N′-di(4-pyridinyl)thiuram disulfide], the 50% inhibitory concentration (IC50) in experiment [3] (setting [6]) came out at 1.25 ± 0.01 µM.

As for `S=C(SSC(=S)N1CCCCC1)N1CCCCC1` [C-23A9, dicyclopentamethylenethiuram disulfide], in experiment [3] (setting [6]), the IC50 came to 0.26 ± 0.003 µM.

As to `S=C(SSC(=S)N1CCCC1)N1CCCC1` [C-23A10, pyrrolidine-1-carbothioic dithioperoxyanhydride], the IC50 in experiment [3] (setting [6]) was 0.26 ± 0.02 µM.

`CN(C(=S)SSC(=S)N(C)c1ccccc1)c1ccccc1` [C-23A11, dimethyldiphenylthiuram disulfide]: the IC50 in experiment [3] (setting [6]) was 0.37 ± 0.01 µM.

As to `S=C(SSC(=S)N(Cc1ccccc1)Cc1ccccc1)N(Cc1ccccc1)Cc1ccccc1` [C-23A12, Tetrabenzylthiuram disulfide], the IC50 in experiment [3] (setting [6]) stood at 2.93 ± 1.07 µM.

Consider `Cc1c(-c2cnccn2)ssc1=S` [C-24], for which, in experiment [1], the “inhibition of canonical inflammasome pyroptosis” value is “Only C-23 blocked pyroptosis”. For the same compound, the “inhibition of non-canonical inflammasome pyroptosis” value in experiment [2] was “Only C-23 blocked pyroptosis”.

Regarding `COC(=O)/C=C/C(=O)OC` [DMF, dimethyl fumarate], in experiment [3] (Cys-reactive comparison compounds), the “activity against GSDMD” value is reported as “lack of activity”.

On to `CCN(CC)C(=S)S` [DTC, diethyldithiocarbamate], for which the “effect of copper gluconate (Cu2+) on inhibition of liposome leakage” value in experiment [3] (with Cu2+) was “only weakly increased”. In experiment [1] (with Cu2+), the “activity in cells in the presence of Cu2+” value is reported as “almost as active as C-23; also recorded: almost as active as disulfiram” and the “effect of Cu2+ on protection of LPS-primed THP-1 cells from pyroptosis” value is listed as “strongly promoted”.

As to `CN1C(=O)C(Cc2c[nH]c3ccccc23)NC1=S` (stereo not shown) [necrostatin-1], the necroptosis result in experiment [4] was “blocked”.

`COc1nccnc1NS(=O)(=O)c1ccc(NC(=O)/C=C/c2ccc([N+](=O)[O-])s2)cc1` [necrosulfonamide]: the “times less active than disulfiram at inhibiting liposome leakage” value in experiment [3] (GSDMD plus caspase-11) is recorded as “about 30 fold”. Also, the IC50 in experiment [3] (WT GSDMD, caspase-11-triggered, read-out: IC50 of liposome leakage) came out at 9.5 ± 0.43 µM. Besides, the necroptosis entry in experiment [4] is “blocked”. Besides, the “processing of caspase-1, GSDMD and IL-1β” value in experiment [5] is “still inhibited processing”.
